We go through nine molecules from BindingDB's records for doi:10.1016/j.ejmech.2017.02.004 (China Pharmaceutical University, 2017).

Assay [1] is described as follows: Substrate activity at NQO1 in human A549 cells assessed as NQO1-mediated two-electron reduction of compound by measuring cell growth inhibition treated for 24 hrs measured after 72 hrs by MTT assay.
The nature of assay [2]: Substrate activity at CPR in human L02 cells assessed as CPR-mediated one-electron reduction of compound by measuring cell growth inhibition treated for 24 hrs measured after 72 hrs by MTT assay.
The nature of assay [3]: Substrate activity at NQO1 in human H1650 cells assessed as NQO1-mediated two-electron reduction of compound by measuring cell growth inhibition treated for 24 hrs measured after 72 hrs by MTT assay.
Assay [4] can be described thus: Substrate activity at NQO1 in human HepG2 cells assessed as NQO1-mediated two-electron reduction of compound by measuring cell growth inhibition treated for 24 hrs measured after 72 hrs by MTT assay.
Assay [5] is described as follows: Substrate activity at NQO1 in human MCF7 cells assessed as NQO1-mediated two-electron reduction of compound by measuring cell growth inhibition treated for 24 hrs measured after 72 hrs by MTT assay.
Assay [6] is described as follows: Substrate activity at NQO1 in human H1299 cells assessed as NQO1-mediated two-electron reduction of compound by measuring cell growth inhibition treated for 24 hrs measured after 72 hrs by MTT assay.
The nature of assay [7]: Substrate activity at NQO1 in human HCT116 cells assessed as NQO1-mediated two-electron reduction of compound by measuring cell growth inhibition treated for 24 hrs measured after 72 hrs by MTT assay.
Assay [8] can be described thus: Substrate activity at NQO1 in human H522 cells assessed as NQO1-mediated two-electron reduction of compound by measuring cell growth inhibition treated for 24 hrs measured after 72 hrs by MTT assay.

pIC50: −log10 of the molar value.

`Cc1cc2c(cc1C)-c1occc1C(=O)C2=O`: in assay [1], the pIC50 was 5.51.
In the case of `Cc1ccc2c(c1)C(=O)C(=O)c1c(C)coc1-2`, the negative logarithm of the IC50 (pIC50) in assay [2] is 4.66; in assay [1], 5.07.
Regarding `COc1ccc2c(c1)C(=O)C(=O)C1=C2OC(C)C1(C)C` (centres undefined), in assay [2], the pIC50 was 4.52.
Turning to `Cc1ccc2c(c1)-c1occ(C)c1C(=O)C2=O`, the results for the pIC50 in assay [2] and in assay [1] were 5.20 and 5.39, respectively.
For the molecule `COc1ccc2c(c1)C1=C(C(=O)C2=O)C(C)(C)C(C)O1` (centres undefined), the pIC50 in assay [1] is 5.24.
As to `COc1cccc2c1C1=C(C(=O)C2=O)C(C)(C)C(C)O1` (centres undefined), the pIC50 in assay [2] is 4.72.
On to `Cc1coc2c1C(=O)C(=O)c1c(C)ccc(C)c1-2`, for which the figures for the pIC50 in assay [2] and in assay [1] were 4.77 and 5.54, respectively.
Consider `CCc1coc2c1C(=O)C(=O)c1cc(C)ccc1-2`, for which the pIC50 is 4.60 in assay [2] and 5.51 in assay [1].
As for `Cc1cc2c(cc1C)-c1occ(C)c1C(=O)C2=O`, the pIC50 was 5.03 in assay [3]; 5.60 in assay [4]; 5.62 in assay [5]; 5.31 in assay [6]; 5.48 in assay [1]; 5.36 in assay [7]. Moreover, the pIC50 in assay [8] was 5.32.
